Measurements from patent US20060094722A1 (Eisai Co., Ltd., priority 2002, published 2006).
Structures can show the parent of a compound that is named as a salt. Where two headings read alike, the source gives them in different places.

Experiments:
[1] = test system: DPPIV-intact normal male Fisher rats; experiment: Influences of metformin and DPPIV inhibitors (Examples 82, 119, 120, 122, 229, 267), singly or in combination, on GLP-1 level in normal rats; format: in vivo, rat; details: 10 mg/kg p.o., 3 hours
Method: Animals: DPPIV-Intact Normal Male Fisher Rats (Purchased from CLEA Japan, Inc.)
250 μL of blood was collected from the rat using a heparinized capillary and transferred into a centrifugation tube.

[2] = biological target: T1, DPPIV obtained from swine kidney (Sus scrofa, UniProt P22411); experiment: Assay for the DPPIV-inhibiting activity; format: biochemical; details: IC50 (nM), DPPIV 10 mU/mL; Gly-Pro-p-nitroanilide 0.33 mM; absorbance 405 nm
T1 construct: DPPIV obtained from swine kidney; from tissue; host or cells: swine kidney
T1 sequence (P22411 whole entry): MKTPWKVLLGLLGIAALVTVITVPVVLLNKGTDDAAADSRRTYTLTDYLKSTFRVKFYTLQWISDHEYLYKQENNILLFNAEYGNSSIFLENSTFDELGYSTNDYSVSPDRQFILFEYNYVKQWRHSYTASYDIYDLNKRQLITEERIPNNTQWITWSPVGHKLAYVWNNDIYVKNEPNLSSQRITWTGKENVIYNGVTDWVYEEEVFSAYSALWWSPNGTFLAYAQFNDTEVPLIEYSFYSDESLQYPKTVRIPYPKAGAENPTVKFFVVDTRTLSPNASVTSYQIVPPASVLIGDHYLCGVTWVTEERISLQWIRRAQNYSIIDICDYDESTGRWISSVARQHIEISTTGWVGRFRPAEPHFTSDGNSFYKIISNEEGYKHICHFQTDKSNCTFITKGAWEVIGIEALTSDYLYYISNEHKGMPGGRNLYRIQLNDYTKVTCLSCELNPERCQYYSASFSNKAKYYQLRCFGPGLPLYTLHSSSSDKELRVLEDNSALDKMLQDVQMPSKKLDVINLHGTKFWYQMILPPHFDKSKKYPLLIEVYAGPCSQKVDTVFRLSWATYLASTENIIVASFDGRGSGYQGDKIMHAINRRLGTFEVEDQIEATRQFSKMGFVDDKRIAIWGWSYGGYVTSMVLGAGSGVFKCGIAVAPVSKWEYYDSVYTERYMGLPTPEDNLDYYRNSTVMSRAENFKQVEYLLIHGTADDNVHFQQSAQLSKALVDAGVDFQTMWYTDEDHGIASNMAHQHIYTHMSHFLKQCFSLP
Method: DPPIV obtained from swine kidney was dissolved in a reaction buffer (50 mM Tris-HCl (pH 7.4)/0.1% BSA) at a fmal concentration of 10 mU/mL. A 110 μL aliquot of this enzyme solution was added to the reaction system, and then 15 μL of an agent was added. The reaction solution was incubated at room temperature for 20 minutes. 25 μL of a solution containing 2 mM Gly-Pro-p-nitroanilide was added to the reaction solution (at the final concentration of 0.33 mM) to start the enzyme reaction. The reaction time was 20 minutes. 25 μL of 1N phosphate solution was added to stop the reaction. […] The degree of inhibition to the enzyme reaction was determined, and IC50 was computed based on the absorbance.

[3] = test system: DPPIV-deficient male Fisher rats
Method: Animals: DPPIV-deficient male Fisher rats (purchased from Charles River Japan, Inc.)
Each test compound was suspended in a solution of 0.5% methyl cellulose at the doses indicated in Table 2, and then administered orally at a volume of 5 mL/kg. The vehicle control group was orally administered a solution of 0.5% methyl cellulose at a volume of 5 mL/kg.
An unanesthetized rat was lightly cut at the caudal vein with a razor blade and bled immediately before, and at 1, 3, and 5 hours after the administration of a test compound or a solution of 0.5% methyl cellulose. 250 μL of blood was collected from the rat using a heparinized capillary and transferred into a centrifugation tube. The supernatant obtained by centrifugation (at 10000 g at 4° C. for 2 minutes) was assayed for GLP-1 level using Active GLP-1 ELISA kit (Linco).

BALB/c AnCrj mice = details: 30 mg/kg p.o. twice a day, 5-FU treatment 60 mg/kg for 3 days, mice
Method: Animals: BALB/c AnCrj Mice (Purchased from Charles River Japan, Inc.)
5-FU (purchased from Sigma) was suspended in a solution of 0.5% methyl cellulose, and then administered orally at a volume of 10 mL/kg/day (8 a.m. to 9 a.m.) for 3 days (60 mg/kg). […] The vehicle control group was orally administered a solution of 0.5% methyl cellulose at a volume of 10 mL/kg.
Mice were fasted for 18 hours following the afternoon administration on the third day of the administration series. On the following day, the mice were killed by cervical dislocation, and then the whole small intestine was excised and the wet weight was measured.

[4] = test system: DPPIV-intact normal male Fisher rats; details: 30 mg/kg p.o.
Method: Each test compound was suspended in a solution of 0.5% methyl cellulose at the doses indicated in Table 3, and then administered orally at a volume of 5 mL/kg. The vehicle control group was orally administered a solution of 0.5% methyl cellulose at a volume of 5 mL/kg.
An unanesthetized rat was lightly cut at the caudal vein with a razor blade and bled immediately before, and at 1, 3, and 5 hours after administration of a test compound or a solution of 0.5% methyl cellulose. 250 μL of blood was collected from the rat using a heparinized capillary and transferred into a centrifugation tube. The supernatant obtained by centrifugation (at 10000 g at 4° C. for 2 minutes) was assayed for GLP-1 level using Active GLP-1 ELISA kit (Linco).

Zucker fa/fa rats [5] = details: for Blood glucose level at each time point (hr) after oral glucose administration / GLP-1 concentration at each time point (hr) after oral glucose administration (% of Pre) / Insulin concentration at each time point (hr) after oral glucose administration: 30 mg/kg p.o. 0.5 hour before glucose load
Method: (§1) Animals: Zucker fa/fa Rats, an Animal Model for TypeII Diabetes (Purchased from Charles River Japan, Inc.)
(§2) Each test compound was dissolved in distilled water at the doses shown in the Tables indicated below, and then administered orally at a volume of 5 mL/kg. The vehicle control group was orally administered distilled water at a volume of 5 mL/kg. […] The rats were tested for glucose tolerance on the first day of the administration series. In the test, distilled water and the test compounds were given 0.5 hour before glucose load.
For the glucose tolerance test, an unanesthetized rat was lightly cut at the caudal vein with a razor blade and bled immediately before the administration of a test compound or distilled water, and immediately before, and at 0.5, 1, 2, and 3 hours after glucose load. 250 μL of blood was collected from the rat using a heparinized capillary and transferred into a centrifugation tube. The supernatant obtained by centrifugation (at 10000 g at 4° C. for 2 minutes) was assayed for active GLP-1 level using Active GLP-1 ELISA kit (Linco). At the same time, 10 μL of blood was collected and mixed with 140 μL of a 0.6 M perchloric acid solution. The mixture was centrifuged (at 3000 g at 4° C. for 10 minutes), and the resulting supernatant was assayed for glucose using Glucose Test Wako II (Wako Pure Chemical Industries, Inc.). The level of blood glucose alone was determined at the time of measurement 3 hours after glucose load.

Zucker fa/fa rats [6] = details: 30 mg/kg p.o. twice daily for 14 days
Method: as §1, §2
Food intake and body weight were determined at 4:00 p.m after the 14-day administration series. Total food intake and weight gain over 14 days were determined for each experimental group.

CC#CCn1c(N2CCNCC2)nc2cnn(Cc3ccccc3C#N)c(=O)c21.O=C(O)C(F)(F)F [Example 267, 2-[3-(2-Butynyl)-4-oxo-2-(piperazin-1-yl)-3,4-dihydroimidazo[4,5-d]pyridazin-5-ylmethyl]benzonitrile trifluoroacetate]
GLP-1 concentration 3 hours after oral administration (% of Pre) [1]: 110.0 ± 9.0 % of Pre

CC#CCn1c(N2CCNCC2)nc2c1c(=O)n(CCc1ccccc1)c(=O)n2CC(=O)NC [Example 419, 2-[7-(2-Butynyl)-2,6-dioxo-1-(2-phenethyl)-8-(piperazin-1-yl)-1,2,6,7-tetrahydropurin-3-yl]-N-methylacetamide hydrochloride]
IC50 [2]: 1.55 nM

CC#CCn1c(N2CCNCC2)nc2c1c(=O)n(CCc1ccccc1)c(=O)n2CC(=O)NC1CC1 [Example 420, 2-[7-(2-Butynyl)-2,6-dioxo-1-(2-phenethyl)-8-(piperazin-1-yl)-1,2,6,7-tetrahydropurin-3-yl]-N-cyclopropyl acetamide hydrochloride]
IC50 [2]: 1.7 nM

CC#CCn1c(N2CCNCC2)nc2c1c(=O)n(CCc1ccccc1)c(=O)n2CC(=O)Nc1ccccc1 [Example 421, 2-[7-(2-Butynyl)-2,6-dioxo-1-(2-phenethyl)-8-(piperazin-1-yl)-1,2,6,7-tetrahydropurin-3-yl]-N-phenylacetamide hydrochloride]
IC50 [2]: 3.37 nM

C#CCNC(=O)Cn1c(=O)n(CCc2ccccc2)c(=O)c2c1nc(N1CCNCC1)n2CC#CC [Example 422, 2-[7-(2-Butynyl)-2,6-dioxo-1-(2-phenethyl)-8-(piperazin-1-yl)-1,2,6,7-tetrahydropurin-3-yl]-N-(2-propynyl) acetamide hydrochloride]
IC50 [2]: 0.472 nM

[H]/N=C(/N)N/C(=N/[H])NCCc1ccccc1 [Phenformin, phenformin]
GLP-1 concentration at each time point (hr) after oral administration (% of Pre) ([3]; 30 mg/kg p.o., 0 hr): 100 ± 0.0 % of Pre | GLP-1 concentration at each time point (hr) after oral administration (% of Pre) ([3]; 30 mg/kg p.o., 1 hr): 125.3 ± 10.7 % of Pre | GLP-1 concentration at each time point (hr) after oral administration (% of Pre) ([3]; 30 mg/kg p.o., 3 hr): 120.0 ± 7.2 % of Pre | GLP-1 concentration at each time point (hr) after oral administration (% of Pre) ([3]; 30 mg/kg p.o., 5 hr): 126.7 ± 10.7 % of Pre | GLP-1 concentration at each time point (hr) after oral administration (% of Pre) ([3]; 100 mg/kg p.o., 0 hr): 100 ± 0.0 % of Pre | GLP-1 concentration at each time point (hr) after oral administration (% of Pre) ([3]; 100 mg/kg p.o., 1 hr): 316.9 ± 26.4 % of Pre | GLP-1 concentration at each time point (hr) after oral administration (% of Pre) ([3]; 100 mg/kg p.o., 1 hr, listed as phenformin): significantly elevated | GLP-1 concentration at each time point (hr) after oral administration (% of Pre) ([3]; 100 mg/kg p.o., 3 hr): 330.7 ± 112.4 % of Pre | GLP-1 concentration at each time point (hr) after oral administration (% of Pre) ([3]; 100 mg/kg p.o., 3 hr, listed as phenformin): significantly elevated | GLP-1 concentration at each time point (hr) after oral administration (% of Pre) ([3]; 100 mg/kg p.o., 5 hr): 236.5 ± 20.5 % of Pre | GLP-1 concentration at each time point (hr) after oral administration (% of Pre) ([3]; 100 mg/kg p.o., 5 hr, listed as phenformin): significantly elevated

CC(C)[C@H](N)C(=O)N1CCCC1 [Val-Pyr, valine pyrrolidide]
Wet weight of small intestine (BALB/c AnCrj mice): 0.637 ± 0.015 g | Wet weight of small intestine (g) (BALB/c AnCrj mice; listed as DPPIV inhibitor): no alteration | GLP-1 concentration at each time point (hr) after oral administration (% of Pre) ([4]; 0 hr): 100 ± 0.0 % of Pre | GLP-1 concentration at each time point (hr) after oral administration (% of Pre) ([4]; 1 hr): 127 ± 6 % of Pre | GLP-1 concentration at each time point (hr) after oral administration (% of Pre) ([4]; 3 hr): 136 ± 20 % of Pre | GLP-1 concentration at each time point (hr) after oral administration (% of Pre) ([4]; 5 hr): 91 ± 2 % of Pre | level of insulin during the glucose tolerance test (Zucker fa/fa rats [5]): increased significantly | Blood glucose level at each time point (hr) after oral glucose administration (Zucker fa/fa rats [5]; 0 hr): 110.5 ± 3.3 mg/dL | GLP-1 concentration at each time point (hr) after oral glucose administration (% of Pre) (Zucker fa/fa rats [5]; 0 hr): 119.5 ± 3.6 % of Pre | Insulin concentration at each time point (hr) after oral glucose administration (Zucker fa/fa rats [5]; 0 hr): 13.1 ± 1.2 ng/mL | Blood glucose level at each time point (hr) after oral glucose administration (Zucker fa/fa rats [5]; 0.5 hr): 166.0 ± 9.9 mg/dL | GLP-1 concentration at each time point (hr) after oral glucose administration (% of Pre) (Zucker fa/fa rats [5]; 0.5 hr): 217.6 ± 24.6 % of Pre | Insulin concentration at each time point (hr) after oral glucose administration (Zucker fa/fa rats [5]; 0.5 hr): 32.4 ± 3.2 ng/mL | Blood glucose level at each time point (hr) after oral glucose administration (Zucker fa/fa rats [5]; 1 hr): 167.1 ± 7.0 mg/dL | GLP-1 concentration at each time point (hr) after oral glucose administration (% of Pre) (Zucker fa/fa rats [5]; 1 hr): 197.5 ± 20.4 % of Pre | Insulin concentration at each time point (hr) after oral glucose administration (Zucker fa/fa rats [5]; 1 hr): 27.7 ± 5.0 ng/mL | Blood glucose level at each time point (hr) after oral glucose administration (Zucker fa/fa rats [5]; 2 hr): 139.3 ± 3.3 mg/dL | GLP-1 concentration at each time point (hr) after oral glucose administration (% of Pre) (Zucker fa/fa rats [5]; 2 hr): 128.3 ± 5.4 % of Pre | Insulin concentration at each time point (hr) after oral glucose administration (Zucker fa/fa rats [5]; 2 hr): 14.4 ± 2.6 ng/mL | Blood glucose level at each time point (hr) after oral glucose administration (Zucker fa/fa rats [5]; 3 hr): 115.1 ± 3.0 mg/dL | Blood glucose level at each time point (hr) after oral glucose administration (Zucker fa/fa rats [5]; −0.5 hr): 102.6 ± 3.0 mg/dL | GLP-1 concentration at each time point (hr) after oral glucose administration (% of Pre) (Zucker fa/fa rats [5]; −0.5 hr): 100.0 ± 0.0 % of Pre | Insulin concentration at each time point (hr) after oral glucose administration (Zucker fa/fa rats [5]; −0.5 hr): 8.8 ± 1.1 ng/mL | glucose tolerance (Zucker fa/fa rats [5]; glucose tolerance test): improved | Total food intake for 14 days (Zucker fa/fa rats [6]): 491.8 ± 11.1 g | Weight gain for 14 days (Zucker fa/fa rats [6]): 60.9 ± 4.4 g
